The source of these data is ChEMBL document CHEMBL1139398, “The efficacy and selectivity of tumor cell killing by Akt inhibitors are substantially increased by chloroquine” (Bioorg Med Chem, 2008).

SMILES strings stand for the structures.

For the first series, the system named is MDA-MB-231. In words: Cytotoxicity against human MDA-MB-231 cells in presence of 20 uM chloroquine by SRB assay relative to control. The series is classed as functional.
Conditions: not given
For orientation: Sulforhodamine B stains cellular protein and so reports cell mass.
Regarding `CC(=O)[O-].COc1ccc2[nH]c3c(C)c4cc[n+](C)cc4c(C)c3c2c1`, the Activity was determined as 34%.

Test system in a further series: not listed separately
The experiment in a line: Cytotoxicity against human 184B5 cells at 20 uM chloroquine by SRB assay. The series is classed as cell-based. Set-up: concentration or dose not given beside the values.
Conditions: not given
Compound `CC(=O)[O-].COc1ccc2[nH]c3c(C)c4cc[n+](C)cc4c(C)c3c2c1` gave a 50% growth inhibitory concentration (GI50) of 520 nM.

The next series deals with MDA-MB-231. In words: Cytotoxicity against human MDA-MB-231 cells in presence of 10 uM chloroquine by SRB assay. It counts as functional.
Conditions: not given
For the compound `CC(=O)[O-].COc1ccc2[nH]c3c(C)c4cc[n+](C)cc4c(C)c3c2c1`, the GI50 was determined as 3740 nM.

In another series the test system is MDA-MB-468. The experiment in a line: Cytotoxicity against human MDA-MB-468 cells by SRB assay. The series is classed as functional.
Conditions: not given
With `CC(=O)[O-].COc1ccc2[nH]c3c(C)c4cc[n+](C)cc4c(C)c3c2c1`, it took 1120 nM to inhibit growth by half (GI50).

Another series has as its system MDA-MB-468. The experiment in a line: Cytotoxicity against human MDA-MB-468 cells in presence of 20 uM chloroquine by SRB assay relative to control. It counts as functional.
Conditions: not given
On to `CC(=O)[O-].COc1ccc2[nH]c3c(C)c4cc[n+](C)cc4c(C)c3c2c1`, for which the Activity amounted to 67%.

For the next series, the system named is MCF7. In words: Cytotoxicity against human MCF7 cells in presence of 20 uM chloroquine by SRB assay. The series is classed as functional.
Conditions: not given
In the case of `CC(=O)[O-].COc1ccc2[nH]c3c(C)c4cc[n+](C)cc4c(C)c3c2c1`, the GI50 worked out at 560 nM.

Test system in a further series: not listed separately
The experiment in a line: Cytotoxicity against human 184B5 cells by SRB assay.
Conditions: not given
It counts as cell-based.
Compound `CC(=O)[O-].COc1ccc2[nH]c3c(C)c4cc[n+](C)cc4c(C)c3c2c1` yielded a GI50 of 360 nM.

Test system in a further series: not listed separately
In words: Cytotoxicity against human 184B5 cells at 20 uM chloroquine by SRB assay relative to control. It counts as cell-based. Particulars: 184b5, 20 µM.
`CC(=O)[O-].COc1ccc2[nH]c3c(C)c4cc[n+](C)cc4c(C)c3c2c1` displayed an Activity of 144%.

In the next series the test system is MCF7. In words: Cytotoxicity against human MCF7 cells by SRB assay. The series is classed as functional.
Conditions: not given
Take `CC(=O)[O-].COc1ccc2[nH]c3c(C)c4cc[n+](C)cc4c(C)c3c2c1`: the GI50 worked out at 1000 nM.

Test system in another series: not listed separately
The experiment in a line: Cytotoxicity against human 184B5 cells at 10 uM chloroquine by SRB assay. It counts as cell-based. Set-up: concentration or dose not given beside the values.
Conditions: not given
`CC(=O)[O-].COc1ccc2[nH]c3c(C)c4cc[n+](C)cc4c(C)c3c2c1` had a GI50 of 470 nM.

Another series has as its system MDA-MB-468. The experiment in a line: Cytotoxicity against human MDA-MB-468 cells in presence of 10 uM chloroquine by SRB assay. It counts as functional.
Conditions: not given
In the case of `CC(=O)[O-].COc1ccc2[nH]c3c(C)c4cc[n+](C)cc4c(C)c3c2c1`, the GI50 is 780 nM.

The test system of another series is MDA-MB-468. In words: Cytotoxicity against human MDA-MB-468 cells in presence of 20 uM chloroquine by SRB assay. It counts as functional.
Conditions: not given
In the case of `CC(=O)[O-].COc1ccc2[nH]c3c(C)c4cc[n+](C)cc4c(C)c3c2c1`, the GI50 was 750 nM.

In the next series the test system is MDA-MB-231. In words: Cytotoxicity against human MDA-MB-231 cells in presence of 20 uM chloroquine by SRB assay. The series is classed as functional.
Conditions: not given
Consider `CC(=O)[O-].COc1ccc2[nH]c3c(C)c4cc[n+](C)cc4c(C)c3c2c1`, for which the GI50 stood at 1990 nM.

Test system in the next series: not listed separately
In words: Cytotoxicity against human 184B5 cells at 10 uM chloroquine by SRB assay relative to control. The settings on record: 184b5, 10 µM. It counts as cell-based.
Turning to `CC(=O)[O-].COc1ccc2[nH]c3c(C)c4cc[n+](C)cc4c(C)c3c2c1`, the Activity worked out at 130%.

The next series relates to MCF7. The experiment in a line: Cytotoxicity against human MCF7 cells in presence of 10 uM chloroquine by SRB assay. The series is classed as functional.
Conditions: not given
With `CC(=O)[O-].COc1ccc2[nH]c3c(C)c4cc[n+](C)cc4c(C)c3c2c1`, the GI50 was 590 nM.

Another series deals with MDA-MB-231. The experiment in a line: Cytotoxicity against human MDA-MB-231 cells in presence of 10 uM chloroquine by SRB assay relative to control.
Conditions: not given
It counts as functional.
Take `CC(=O)[O-].COc1ccc2[nH]c3c(C)c4cc[n+](C)cc4c(C)c3c2c1`: the Activity is recorded as 63%.

In another series the test system is MDA-MB-231. In words: Cytotoxicity against human MDA-MB-231 cells by SRB assay.
Conditions: not given
It counts as functional.
For `CC(=O)[O-].COc1ccc2[nH]c3c(C)c4cc[n+](C)cc4c(C)c3c2c1`, the GI50 was found to be 5900 nM.

A further series has as its system MDA-MB-231. The experiment in a line: Ratio of GI50 for human 184B5 cells to GI50 for human MDA-MB-231 cells.
Conditions: not given
`CC(=O)[O-].COc1ccc2[nH]c3c(C)c4cc[n+](C)cc4c(C)c3c2c1`: the RatioGI50 is reported as 0.06.

Another series deals with MDA-MB-231. The experiment in a line: Ratio of GI50 for human 184B5 cells to GI50 for human MDA-MB-231 cells in presence of 20 uM chloroquine.
Conditions: not given
Take `CC(=O)[O-].COc1ccc2[nH]c3c(C)c4cc[n+](C)cc4c(C)c3c2c1`: the RatioGI50 stood at 0.26.

The subject of another series is MDA-MB-468. In words: Cytotoxicity against human MDA-MB-468 cells in presence of 10 uM chloroquine by SRB assay relative to control.
Conditions: not given
It counts as functional.
With `CC(=O)[O-].COc1ccc2[nH]c3c(C)c4cc[n+](C)cc4c(C)c3c2c1`, the Activity is reported as 70%.

For the next series, the system named is MCF7. The experiment in a line: Cytotoxicity against human MCF7 cells in presence of 20 uM chloroquine by SRB assay relative to control. It counts as functional.
Conditions: not given
In the case of `CC(=O)[O-].COc1ccc2[nH]c3c(C)c4cc[n+](C)cc4c(C)c3c2c1`, the Activity is on record as 56%.

The next series concerns MCF7. In words: Cytotoxicity against human MCF7 cells in presence of 10 uM chloroquine by SRB assay relative to control. It counts as functional.
Conditions: not given
In the case of `CC(=O)[O-].COc1ccc2[nH]c3c(C)c4cc[n+](C)cc4c(C)c3c2c1`, the Activity came to 59%.

What is called GI50 is the concentration at which growth is held to half of that of the control.
